Paper PMC12749811 (Nature Communications, 2025)

Tests used:
Cal09-WT virus [1] = format: cell-based, influenza A(H1N1)pdm09 virus A/California/07/2009
[2] = test system: A/Sichuan-Shunqing/SWL11211/2023; format: cell-based, influenza A(H1N1)pdm09 virus
[3] = test system: A/Fujian-Licheng/SWL1661/2023; format: cell-based, influenza A(H1N1)pdm09 virus
Cal09-WT virus [4] = format: cell-based, influenza A(H1N1)pdm09 virus A/California/07/2009; remark: listed apart in the source
[5] = in vivo; cited from earlier work

Compound: CC(=O)N[C@H]1[C@H]([C@H](O)[C@H](O)CO)OC(C(=O)O)=C[C@@H]1N=C(N)N [zanamivir]
- sensitivity in plaque-reduction assay (Cal09-WT virus [1]): remained fully sensitive

Compound: CCOC(=O)C1=C[C@@H](OC(CC)CC)[C@H](NC(C)=O)[C@@H](N)C1 [oseltamivir]
- oseltamivir sensitivity [2]: remained oseltamivir-sensitive
- concentration at which plaque diameters were inhibited (Cal09-WT virus [1]): 0.01 µM
- oseltamivir sensitivity [3]: remained oseltamivir-sensitive
- concentration at which virus replication was significantly inhibited (Cal09-WT virus [4]): 0.1 µM
- average plasma concentration [5]: 0.33 µM

Compound: CCC(CC)[C@H](NC(C)=O)[C@@H]1[C@H](O)[C@@H](C(=O)O)C[C@H]1N=C(N)N [peramivir]
- sensitivity in plaque-reduction assay (Cal09-WT virus [1]): remained fully sensitive

Compound: O=C1c2c(O)c(=O)ccn2N([C@@H]2c3ccccc3SCc3c2ccc(F)c3F)[C@@H]2COCCN12 [baloxavir]
- sensitivity in plaque-reduction assay (Cal09-WT virus [1]): remained high sensitivity
